Measured values as given in patent publication US8148388B2, “2,4 (4,6) pyrimidine derivatives” (Janssen Pharmaceutica, N.V., priority 2004, dated 2012).
pIC50: −log10 of the molar value.

How the values were obtained:
Assay type in all cases: biochemical
EGFR-kinase domain = molecular target: T1, EGFR-kinase domain (Homo sapiens, UniProt P00533); experiment: In vitro inhibition of EGFR (Flash Plate assay); details: full dose response 1.10^−6M to 1.10^−10M, read-out: C12 EGFR flash Score
T1 construct: 0.5 μg EGFR-kinase domain/well
T1 sequence (P00533 712-979 limits assumed): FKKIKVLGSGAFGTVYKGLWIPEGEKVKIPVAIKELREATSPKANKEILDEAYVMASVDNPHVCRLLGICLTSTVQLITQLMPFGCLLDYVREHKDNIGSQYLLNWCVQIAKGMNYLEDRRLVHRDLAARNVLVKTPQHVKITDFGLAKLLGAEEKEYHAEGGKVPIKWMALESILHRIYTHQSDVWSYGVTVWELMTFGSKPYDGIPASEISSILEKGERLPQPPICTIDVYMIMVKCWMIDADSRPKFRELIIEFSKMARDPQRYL
Method: The in vitro inhibition of EGFR was assessed using either the Flash Plate technology or the glass-fiber filter technology as described by Davies, S. P. et al., Biochem J. (2000), 351; p. 95-105. The Flash Plate technology is generally described by B. A. Brown et al. in High Throughput Screening (1997), p. 317-328. Editor(s): Devlin, John P. Publisher: Dekker, New York, N.Y.
In the Flash Plate EGFR kinase reaction assay, a kinase substrate consisting of biotinylated poly(L-glutamic acid-L-tyrosine) (poly(GT)biotin), is incubated with the aforementioned protein in the presence of (^33P) radiolabeled ATP. (^33P) phosphorylation of the substrate is subsequently measured as light energy emitted using a streptavidin-coated Flash Plate (PerkinElmer Life Sciences) by trapping and quantifying the binding of the biotin tagged and radiolabeled substrate.
The EGFR kinase reaction is performed at 30° C. for 60 minutes in a 96-well microtiter FlashPlate (PerkinElmer Life Sciences). For each of the tested compounds a full dose response 1.10^−6M to 1.10^−10M has been performed. IRESSA® and Tarceva™ (erlotinib) were used as reference compounds. The 100 μl reaction volume contains 54.5 mM TrisHCl pH 8.0, 10 mM MgCl2, 100 μM Na3VO4, 5.0 μM unlabeled ATP, 1 mM DTT, 0.009% BSA, 0.8 μCi AT^33P, 0.35 μg/well poly(GT)biotin and 0.5 μg EGFR-kinase domain/well.
The reaction is stopped by aspirating the reaction mixture and washing the plate 3× with 200 μl wash/stop buffer (PBS+100 mM EDTA). After the final wash step 200 μl of wash/stop buffer was added to each well and the amount of phosphorylated (^33P) Poly(GT)biotin determined by counting (30 sec/well) in a microtiterplate scintillation counter.

ErbB2 (h) = ErbB2 (h) (Homo sapiens, UniProt P04626); experiment: ErbB2 human kinase assay (filter); details: read-out: C13 ERBB 2 Filter Score
ErbB2 (h), sequence (P04626 23-1255): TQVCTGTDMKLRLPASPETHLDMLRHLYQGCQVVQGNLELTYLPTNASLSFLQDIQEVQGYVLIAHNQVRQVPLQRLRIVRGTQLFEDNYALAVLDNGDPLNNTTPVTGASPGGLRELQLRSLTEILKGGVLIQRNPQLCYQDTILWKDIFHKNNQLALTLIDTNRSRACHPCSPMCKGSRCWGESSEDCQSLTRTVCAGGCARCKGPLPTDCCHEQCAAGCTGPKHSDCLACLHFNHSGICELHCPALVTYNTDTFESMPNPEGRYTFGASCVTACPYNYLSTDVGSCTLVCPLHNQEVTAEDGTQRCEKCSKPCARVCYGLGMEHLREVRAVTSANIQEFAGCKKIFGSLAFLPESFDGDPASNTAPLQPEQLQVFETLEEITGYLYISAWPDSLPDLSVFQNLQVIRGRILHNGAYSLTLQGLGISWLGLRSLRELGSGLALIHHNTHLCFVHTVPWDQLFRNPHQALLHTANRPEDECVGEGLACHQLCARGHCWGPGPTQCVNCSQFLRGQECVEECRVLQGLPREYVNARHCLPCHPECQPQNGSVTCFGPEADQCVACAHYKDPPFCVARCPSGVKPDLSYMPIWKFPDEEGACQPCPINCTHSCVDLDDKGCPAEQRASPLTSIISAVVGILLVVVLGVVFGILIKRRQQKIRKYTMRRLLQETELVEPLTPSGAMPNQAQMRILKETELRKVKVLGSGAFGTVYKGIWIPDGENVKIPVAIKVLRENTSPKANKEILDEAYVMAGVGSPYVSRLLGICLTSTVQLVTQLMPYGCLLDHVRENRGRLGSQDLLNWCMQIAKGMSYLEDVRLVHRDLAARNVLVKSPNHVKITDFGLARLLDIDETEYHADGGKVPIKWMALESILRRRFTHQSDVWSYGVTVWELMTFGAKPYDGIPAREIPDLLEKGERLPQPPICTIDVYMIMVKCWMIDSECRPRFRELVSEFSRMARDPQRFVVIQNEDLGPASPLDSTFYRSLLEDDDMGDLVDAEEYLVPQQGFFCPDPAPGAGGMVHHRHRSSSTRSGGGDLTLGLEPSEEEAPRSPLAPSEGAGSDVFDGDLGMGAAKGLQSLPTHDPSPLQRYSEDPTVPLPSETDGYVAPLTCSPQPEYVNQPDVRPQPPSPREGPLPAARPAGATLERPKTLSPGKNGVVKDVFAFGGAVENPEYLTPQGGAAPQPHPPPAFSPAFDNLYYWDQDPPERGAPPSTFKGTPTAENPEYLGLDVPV
Method: (§1) Similarly to the above the in vitro inhibition of two other kinases, i.e. human ErbB2 and human ErbB4 was tested for some of the compounds according to the invention.
(§2) In a final reaction volume of 25 μl, ErbB2 (h) (5-10 mU) is incubated with 8 mM MOPS pH 7.0, 0.2 mM EDTA, 10 mM MnCl2, 0.1 mg/ml poly(Glu, Tyr) 4:1, 10 mM MgAcetate and [γ-33P-ATP] (specific activity approx. 500 cpm/pmol, concentration as required). The reaction is initiated by the addition of the MgATP mix. After incubation for 40 minutes at room temperature, the reaction is stopped by the addition of 5 μl of a 3% phosphoric acid solution. 10 μl of the reaction is then spotted onto a Filtermat A and washed three times for 5 minutes in 75 mM phosphoric acid and once in methanol prior to drying and scintillation counting.

cSRC (h) = cSRC (h) (Homo sapiens, UniProt P12931); experiment: cSRC human kinase assay (glass-fiber filter); details: test concentration of 10^−6M
Procedure, shortened: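 Radiometric assay: kinase and substrate are incubated with [33P]ATP, with the reaction started by MgATP mix. The reaction is spotted on P30 filtermat, washed in 75 mM phosphoric acid and methanol, and the bound 33P is measured by scintillation counting.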

Lyn (h) = Lyn (h) (Homo sapiens, UniProt P07948); experiment: Lyn human kinase assay (glass-fiber filter); details: test concentration of 10^−6M
Procedure, shortened: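 Human Lyn (5-10 mU) phosphorylating poly(Glu,Tyr) 4:1 at 0.1 mg/ml with [γ-33P]ATP (concentration as required) in 50 mM Tris pH 7.5, 10 mM Mg acetate, 40 min at room temperature. Stopped with phosphoric acid; substrate-bound radioactivity counted on glass-fibre filter.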

Fms (h) = Fms (h) (Homo sapiens, UniProt P07333); experiment: Fms human kinase assay (glass-fiber filter); details: test concentration of 10^−6M
Fms (h), sequence (P07333 20-972): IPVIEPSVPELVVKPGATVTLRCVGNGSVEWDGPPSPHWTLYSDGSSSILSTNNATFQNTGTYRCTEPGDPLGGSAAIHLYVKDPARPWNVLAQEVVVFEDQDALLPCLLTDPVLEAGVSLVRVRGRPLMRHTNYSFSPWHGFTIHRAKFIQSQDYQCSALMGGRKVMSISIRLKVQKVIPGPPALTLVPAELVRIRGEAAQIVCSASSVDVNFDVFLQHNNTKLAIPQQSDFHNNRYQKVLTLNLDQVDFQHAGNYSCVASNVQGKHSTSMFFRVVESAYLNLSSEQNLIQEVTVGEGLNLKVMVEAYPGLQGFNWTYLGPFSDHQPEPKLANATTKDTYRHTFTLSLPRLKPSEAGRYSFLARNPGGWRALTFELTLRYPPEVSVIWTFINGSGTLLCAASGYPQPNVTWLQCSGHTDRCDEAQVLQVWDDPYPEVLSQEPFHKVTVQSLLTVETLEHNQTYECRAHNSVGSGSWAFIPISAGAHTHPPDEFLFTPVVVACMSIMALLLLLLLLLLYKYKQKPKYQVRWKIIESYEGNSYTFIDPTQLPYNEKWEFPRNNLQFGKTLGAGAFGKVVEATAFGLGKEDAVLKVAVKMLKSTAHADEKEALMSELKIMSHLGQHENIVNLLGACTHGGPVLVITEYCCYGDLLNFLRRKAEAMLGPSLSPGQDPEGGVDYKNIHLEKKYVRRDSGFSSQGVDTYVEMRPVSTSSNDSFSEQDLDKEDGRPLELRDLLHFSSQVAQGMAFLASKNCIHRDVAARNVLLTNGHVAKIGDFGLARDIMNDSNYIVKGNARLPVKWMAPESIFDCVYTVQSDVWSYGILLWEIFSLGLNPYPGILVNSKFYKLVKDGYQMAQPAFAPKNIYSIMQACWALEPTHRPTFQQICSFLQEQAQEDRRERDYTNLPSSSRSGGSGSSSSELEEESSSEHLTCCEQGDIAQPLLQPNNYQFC
Procedure, shortened: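 Radiometric filter-binding assay: Fms (5-10 mU) with 250 μM peptide substrate and [γ-33P]ATP in 8 mM MOPS pH 7.0, 10 mM Mg acetate, 40 min at room temperature. Reaction stopped with phosphoric acid; substrate-bound 33P counted on P30 filtermat.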

GSK3B (h) = GSK3B (h) (Homo sapiens, UniProt P49841); experiment: GSK3β human kinase assay (glass-fiber filter); details: test concentration of 10^−6M
GSK3B (h), sequence (P49841 whole entry): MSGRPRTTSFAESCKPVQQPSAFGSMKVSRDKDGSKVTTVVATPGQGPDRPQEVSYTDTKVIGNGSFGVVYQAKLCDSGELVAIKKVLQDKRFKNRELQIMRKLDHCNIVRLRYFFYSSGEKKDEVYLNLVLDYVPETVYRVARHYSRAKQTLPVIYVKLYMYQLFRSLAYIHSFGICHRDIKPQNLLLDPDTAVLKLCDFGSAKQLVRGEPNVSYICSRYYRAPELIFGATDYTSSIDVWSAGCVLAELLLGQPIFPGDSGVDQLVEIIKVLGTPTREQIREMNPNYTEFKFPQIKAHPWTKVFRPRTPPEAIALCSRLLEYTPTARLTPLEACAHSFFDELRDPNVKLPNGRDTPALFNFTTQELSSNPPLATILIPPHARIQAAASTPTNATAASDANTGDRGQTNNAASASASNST
Procedure, shortened: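 Human GSK3β (5-10 mU) with 20 μM phospho GS2 peptide, [γ-^33P]ATP, 8 mM MOPS pH 7.0, 10 mM Mg acetate; 40 min at room temperature. Stopped with phosphoric acid; substrate phosphorylation read as filter-bound radioactivity by scintillation counting.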

CSK (h) = CSK (h) (Homo sapiens, UniProt P41240); experiment: CSK human kinase assay (glass-fiber filter); details: test concentration of 10^−6M
CSK (h), sequence (P41240 whole entry): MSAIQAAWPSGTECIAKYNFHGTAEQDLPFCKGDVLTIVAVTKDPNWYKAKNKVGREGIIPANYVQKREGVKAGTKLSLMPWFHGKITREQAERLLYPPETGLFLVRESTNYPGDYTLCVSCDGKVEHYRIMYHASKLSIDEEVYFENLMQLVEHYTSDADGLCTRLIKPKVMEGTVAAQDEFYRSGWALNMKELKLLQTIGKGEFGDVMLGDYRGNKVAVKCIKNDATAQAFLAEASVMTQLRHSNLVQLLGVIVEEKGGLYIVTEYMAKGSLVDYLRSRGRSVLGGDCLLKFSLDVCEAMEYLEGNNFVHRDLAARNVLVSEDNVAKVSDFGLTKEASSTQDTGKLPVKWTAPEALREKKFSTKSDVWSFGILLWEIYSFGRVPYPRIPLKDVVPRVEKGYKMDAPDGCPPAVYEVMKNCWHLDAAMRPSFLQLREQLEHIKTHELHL
Method: In the glass-fiber filter technology the activity of the kinase of interest is measured using an appropriate substrate that is incubated with the aforementioned kinase protein in the presence of (^33P) radiolabeled ATP. (^33P) Phosphorylation of the substrate is subsequently measured as radioactivity bound on a glass fiber-filter.
All kinases are pre-diluted to a 10× working concentration prior to addition into the assay. The composition of the dilution buffer for each kinase is detailed below.
In a final reaction volume of 25 μl, CSK (h) (5-10 mU) is incubated with 50 mM Tris pH 7.5, 0.1 mM EGTA, 0.1 mM Na3VO4, 0.1% β-mercaptoethanol, 0.1 mg/ml poly(Glu, Tyr) 4:1, 10 mM MnCl2, 10 mM MgAcetate and [γ-^33P-ATP] (specific activity approx. 500 cpm/pmol, concentration as required). The reaction is initiated by the addition of the MgATP mix. After incubation for 40 minutes at room temperature, the reaction is stopped by the addition of 5 μl of a 3% phosphoric acid solution. 10 μl of the reaction is then spotted onto a Filtermat A and washed three times for 5 minutes in 75 mM phosphoric acid and once in methanol prior to drying and scintillation counting.

Yes (h) = Yes (h) (Homo sapiens, UniProt P07947); experiment: Yes human kinase assay (glass-fiber filter); details: test concentration of 10^−6M
Procedure, shortened: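 Yes (h) (5-10 mU) with 0.1 mg/ml poly(Glu, Tyr) 4:1 in 8 mM MOPS pH 7.0, 0.2 mM EDTA, 10 mM MgAcetate and [γ-^33P-ATP], 40 minutes at room temperature. Stopped with phosphoric acid; substrate-bound ^33P counted on glass-fiber filter by scintillation.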

EGFR (h) = EGFR (h) (Homo sapiens, UniProt P00533); experiment: EGFR human kinase assay (glass-fiber filter); details: test concentration of 10^−6M
Procedure, shortened: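 Human EGFR (5-10 mU) phosphorylated 0.1 mg/ml poly(Glu, Tyr) 4:1 in 8 mM MOPS pH 7.0, 0.2 mM EDTA, 10 mM MnCl2, 10 mM MgAcetate with [γ-33P]ATP at unspecified concentration. Incubation lasted 40 minutes at room temperature, was stopped with phosphoric acid, and filter-bound 33P was counted by scintillation.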

Lck (h) = Lck (h) (Homo sapiens, UniProt P06239); experiment: Lck human kinase assay (glass-fiber filter); details: test concentration of 10^−6M
Procedure, shortened: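 Kinase activity measured as transfer of (^33P) from radiolabeled MgATP to substrate, captured on P30 glass-fiber filtermat, washed in 75 mM phosphoric acid and methanol, then scintillation counted.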

Fes (h) = Fes (h) (Homo sapiens, UniProt P07332); experiment: Fes human kinase assay (glass-fiber filter); details: test concentration of 10^−6M
Procedure, shortened: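 Human Fes (5–10 mU) was incubated with 0.1 mg/ml poly(Glu,Tyr) 4:1 in 8 mM MOPS pH 7.0, 0.2 mM EDTA, 10 mM Mg acetate and [γ-33P]ATP for 40 min at room temperature. The reaction was stopped with phosphoric acid, and substrate phosphorylation was quantified by filter binding and scintillation counting.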

ErbB4 (h) = ErbB4 (h) (Homo sapiens, UniProt Q15303); experiment: ErbB4 human kinase assay (filter); details: read-out: C14 ERBB 4 Filter Score
ErbB4 (h), sequence (Q15303 26-1308): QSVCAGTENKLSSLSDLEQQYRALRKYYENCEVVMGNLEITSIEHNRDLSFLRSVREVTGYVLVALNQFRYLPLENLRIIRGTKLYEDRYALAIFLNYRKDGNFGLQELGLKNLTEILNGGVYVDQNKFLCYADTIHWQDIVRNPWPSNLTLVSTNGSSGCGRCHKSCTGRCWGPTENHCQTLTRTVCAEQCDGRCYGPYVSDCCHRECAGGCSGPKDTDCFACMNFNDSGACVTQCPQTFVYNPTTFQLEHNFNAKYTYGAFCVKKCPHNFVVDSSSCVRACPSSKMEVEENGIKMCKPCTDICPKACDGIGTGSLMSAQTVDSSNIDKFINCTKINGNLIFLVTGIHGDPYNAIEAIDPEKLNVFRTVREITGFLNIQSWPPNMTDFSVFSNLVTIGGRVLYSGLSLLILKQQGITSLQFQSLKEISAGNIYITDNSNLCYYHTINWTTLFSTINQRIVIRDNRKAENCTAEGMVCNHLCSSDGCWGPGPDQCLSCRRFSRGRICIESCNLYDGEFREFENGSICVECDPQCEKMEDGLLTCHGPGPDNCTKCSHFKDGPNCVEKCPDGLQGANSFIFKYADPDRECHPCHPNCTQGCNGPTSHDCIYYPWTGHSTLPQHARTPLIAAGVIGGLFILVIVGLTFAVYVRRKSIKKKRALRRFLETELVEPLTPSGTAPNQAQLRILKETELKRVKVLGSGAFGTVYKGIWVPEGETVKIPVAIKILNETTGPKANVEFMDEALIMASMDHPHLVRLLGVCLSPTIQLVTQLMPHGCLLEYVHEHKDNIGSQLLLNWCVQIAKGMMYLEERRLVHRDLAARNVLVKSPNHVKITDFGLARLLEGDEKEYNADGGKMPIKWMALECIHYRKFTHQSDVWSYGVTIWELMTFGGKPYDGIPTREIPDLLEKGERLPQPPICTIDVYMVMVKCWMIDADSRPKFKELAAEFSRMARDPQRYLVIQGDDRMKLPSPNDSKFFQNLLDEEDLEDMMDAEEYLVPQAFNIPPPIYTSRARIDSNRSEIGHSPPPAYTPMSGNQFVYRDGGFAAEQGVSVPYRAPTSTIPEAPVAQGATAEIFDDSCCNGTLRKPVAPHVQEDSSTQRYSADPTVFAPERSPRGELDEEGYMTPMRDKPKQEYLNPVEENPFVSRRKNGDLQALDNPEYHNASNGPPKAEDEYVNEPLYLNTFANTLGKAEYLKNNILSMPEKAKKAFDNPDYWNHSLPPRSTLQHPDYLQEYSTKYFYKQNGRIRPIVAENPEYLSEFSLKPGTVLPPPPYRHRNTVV
Method: as §1
as §2, with “ErbB4” for “ErbB2”

Structure (SMILES)	pIC50 (EGFR-kinase domain)	pIC50 (ErbB2 (h))	pIC50 (ErbB4 (h))	also measured
COc1ccc2cc1OCCNC(=O)C1CN(CCO1)C(=O)CN(C)Cc1cccc(c1)Nc1cc(ncn1)N2 (racemic) [Compound 158]	> 6.00	5.00 to 6.00		
COc1ccc2cc1OCCCCCCCCOc1ccc(Br)cc1Nc1cc(ncn1)N2 [Compound 38, 1H,7H-2,6: 12,8-dimetheno-13,22,1,3,5,7-benzodioxatetraazacyclotetracosine, 25-bromo-14,15,16,17,18,19,20,21-octahydro-11-methoxy-]				C3 score (inhibition of cSRC human) (cSRC (h)): 1 (Score 1=10-30% inhibition); C10 score (inhibition of Lyn human) (Lyn (h)): 1 (Score 1=10-30% inhibition); C7 score (inhibition of Fms human) (Fms (h)): 2 (Score 2=30-60% inhibition); C8 score (inhibition of GSK3β human) (GSK3B (h)): 1 (Score 1=10-30% inhibition); C2 score (inhibition of CSK human) (CSK (h)): 1 (Score 1=10-30% inhibition); C11 score (inhibition of Yes human) (Yes (h)): 1 (Score 1=10-30% inhibition); C4 score (inhibition of EGFR human) (EGFR (h)): 3 (Score 3=60-80% inhibition)
COc1ccc2cc1OCCCCCCCCCOc1ccc(Cl)cc1Nc1cc(ncn1)N2 [Compound 39, 1H,7H-2,6: 12,8-dimetheno-14H-13,23,1,3,5,7-benzodioxatetraazacyclopentacosine, 26-chloro-15,16,17,18,19,20,21,22-octahydro-11-methoxy-]				C7 score (inhibition of Fms human) (Fms (h)): 1 (Score 1=10-30% inhibition); C9 score (inhibition of Lck human) (Lck (h)): 1 (Score 1=10-30% inhibition); C8 score (inhibition of GSK3β human) (GSK3B (h)): 1 (Score 1=10-30% inhibition); C2 score (inhibition of CSK human) (CSK (h)): 1 (Score 1=10-30% inhibition); C4 score (inhibition of Fes human) (Fes (h)): 1 (Score 1=10-30% inhibition)
O=C1CN2CCN(CC2)Cc2cccc(c2)Nc2cc(ncn2)Nc2cccc(c2)OCCCCCN1 [Compound 112]	> 6.00	> 6.00	> 6.00	
COc1ccc2cc1OCCNC(=O)C(Cc1ccc(C(F)(F)F)cc1)NC(=O)CN(C)Cc1cccc(c1)Nc1cc(ncn1)N2 (stereo not shown) [Compound 114]	> 6.00	5.00 to 6.00		
CN(C)CCCCC1NC(=O)CN(C)Cc2cccc(c2)Nc2cc(ncn2)Nc2cccc(c2)CNC1=O (stereo not shown) [Compound 148]	> 6.00	5.00 to 6.00	5.00 to 6.00	
CC(C)CC1NC(=O)CN(C)Cc2cccc(c2)Nc2cc(ncn2)Nc2cccc(c2)CNC1=O (stereo not shown) [Compound 149]	> 6.00	5.00 to 6.00	> 6.00	
C#CCC1NC(=O)CN(C)Cc2cccc(c2)Nc2cc(ncn2)Nc2cccc(c2)CNC1=O (stereo not shown) [Compound 150]	> 6.00	> 6.00	> 6.00	
CN1CC(=O)N2CCC2C(=O)NCc2cccc(c2)Nc2cc(ncn2)Nc2cccc(c2)C1 (stereo not shown) [Compound 151]	> 6.00	> 6.00	> 6.00	
CN1CC(=O)NC(CCc2ccccc2)C(=O)NCc2cccc(c2)Nc2cc(ncn2)Nc2cccc(c2)C1 (stereo not shown) [Compound 152]	> 6.00	> 6.00	> 6.00	
CCN1CCNC(=O)C(CCCCN(C)C)NC(=O)CN(C)Cc2cccc(c2)Nc2cc(ncn2)Nc2cccc(c2)C1 (stereo not shown) [Compound 153]		5.00 to 6.00		
CCN1CCNC(=O)C(CC(C)C)NC(=O)CN(C)Cc2cccc(c2)Nc2cc(ncn2)Nc2cccc(c2)C1 (stereo not shown) [Compound 154]	5.00 to 6.00	5.00 to 6.00		
CCN1CCNC(=O)C(Cc2ccc(C(F)(F)F)cc2)NC(=O)CN(C)Cc2cccc(c2)Nc2cc(ncn2)Nc2cccc(c2)C1 (stereo not shown) [Compound 156]	> 6.00	5.00 to 6.00	> 6.00	
CN(C)CCCCC1NC(=O)CN(C)Cc2cccc(c2)Nc2cc(ncn2)Nc2cccc(c2)CN2CCN(CC2)C1=O (stereo not shown) [Compound 159]	> 6.00	5.00 to 6.00		
O=C1COc2cccc(c2)Nc2cc(ncn2)Nc2cccc(c2)CCN1 [Compound 160]	> 6.00	5.00 to 6.00	5.00 to 6.00	
CCN1CCNC(=O)COc2cccc(c2)Nc2cc(ncn2)Nc2cccc(c2)C1 [Compound 161]	> 6.00	5.00 to 6.00	> 6.00	
O=C1COc2cccc(c2)Nc2cc(ncn2)Nc2cccc(c2)OCCCCCN1 [Compound 163]		> 6.00		
O=C1CN2CCN(CC2)Cc2cccc(c2)Nc2cc(ncn2)Nc2cccc(c2)CCN1 [Compound 164]		5.00 to 6.00	> 6.00	
COc1ccc2cc1OCCCNC(=O)CCN1CCC(CC1)N(C)Cc1ccc(Cl)c(c1)Nc1cc(ncn1)N2 [Compound 216]			5.00 to 6.00	
